According to US20220064167A1, “IMIDAZO-PYRAZOLE CARBOXAMIDE DERIVATIVES AS ANTICANCER AGENTS AND THE SYNTHESIS THEREOF” (AVIDIN KFT., priority 2018, published 2022):
“Also recorded” adds a separate entry of the source.

Assays:
[1] = system: HL60 human acute myeloid leukaemia cells in SCID immune-deficient mouse; assay: leukaemia mouse model (FIG. 7); format: in vivo; details: 3 mg/kg intravenously, 10 occasions
Description: The effect on leukaemia was studied on SCID immune-deficient mouse model inoculated intravenously with HL60 human acute myeloid leukaemia cells (ATCC) (1 million cells/animal). Two groups were formed from randomly selected mice, with 9 animals in each group. Group1: control group, it was only administered a carrier (0.1 mL, 0.9% NaCl solution) intravenously; group 2: group treated with compound 60, it was administered 3 mg/kg of compound 60 in PEG100:Solutol:PBS (1:4:15 vol ratio), intravenously.
(§1) The treatments were performed from the third day, on five consecutive occasions per week, for 2 weeks, on a total of 10 occasions. As time went on, every day we determined the number of surviving animals and represented it in percentage per group as compared to the total initial number of animals (FIG. 7). It can be seen that the 3 mg/kg dose of compound 60 administered intravenously was effective, the treatment with compound 60 increased the LD50 (from day 26 to day 42) and the survival rate of the animals.

[2] = system: CD33 expression in HL-60 cells; assay: quantitative real time PCR of stem cell marker (FIG. 3A); format: cell-based, human; details: HL-60, 24 h after treatment, normalized to ACTB
Description: (§2) HL-60 cells (10×10^6) were plated in 100 mm tissue culture dishes (Corning Life Sciences) in RPMI 10% FCS. Cells were treated in 10 mL total volume with the compound described in Example 83 24 h after treatment, nucleic acid preparation was done by using the Bioneer RNA purification kit (Bioneer, Viral RNA extraction kit, Daejeon, South Korea) according to an already published protocol (Szebeni et al. 2017a). The quality and quantity of the isolated RNA were measured with NanoDrop1000 Version 3.8.1. (Thermo Fisher Scientific). Reverse transcription from 3 μg of total RNA was performed with the High-Capacity cDNA Archive Kit (Applied Biosystems, Foster City, Calif., USA) in a total volume of 30 μL according to the manufacturer's protocol. Quantitative-real time PCR was carried out using gene specific primers for CD33 (primer sequences: forward 5′ […] 3′, reverse 5′ […] 3′) and CD34, (primer sequences: forward 5′ gcgctttgcttgctgagt 3′, reverse 5′ […] 3′) using Sybr Green detection on a LightCycler Nano instrument (Roche, Hungary). Relative gene expression data was normalized to ACTB (beta actin, primer sequences: forward 5′ attggcaatgagcggttc 3′, reverse 5′ cgtggatgccacaggact 3′) expression.

[3] = system: CD34 expression in HL-60 cells; assay: as above; format: cell-based, human; details: HL-60, 24 h after treatment, normalized to ACTB
Description: as §2

CD11b on HL-60 cells = assay: flow cytometry of cell surface CD11b (FIG. 3B); format: cell-based, human; details: HL-60, 24, 48 and 72 h after treatment
Description: Experiments detecting CD11b expression by Flow cytometric immunofluorescence were done as described in Example 104 without fixation and permeabilization. Native cell surface staining was done by CD11b-FITC (Immunotools cat number 21389113), with 1:20 dilution 24, 48 and 72 h after treatment.

[4] = system: 4T1 mouse cells inoculated into the mammary gland of BalbC mouse; assay: mammary carcinoma mouse model (FIG. 6); format: in vivo; details: 3 mg/kg intravenously, every other day from day 16, 6 occasions, compared to vehicle
Description: The effect on mammary carcinoma was studied on BalbC mouse model inoculated subcutaneously into the mammary gland with 4T1 mouse cells (ATCC) (100,000 cells/animal). Two groups were formed from randomly selected mice, with 8 animals in both groups. Group 1: control group, it was only administered a carrier (0.1 mL, 0.9% NaCl solution) intravenously; group 2: group treated with compound 83, it was administered 3 mg/kg of compound 83 in PEG100:Solutol:PBS (1:4:15 vol ratio), intravenously after the tumor reached 300 mm^3 (day 16). The treatments were performed from the sixteenth day, every other day, for a total of 6 occasions. Starting from the 16th day on every day the size of the increasing tumours was determined in the case of each animal, and the group average was represented per group (FIG. 6). The standard deviation was determined in SEM. It can be seen that the treatment with compound 83 reduced the size of the increasing mammary tumour.

[5] = system: HTT199 human melanoma cells in SCID immune-deficient mouse; assay: melanoma mouse model (FIG. 8); format: in vivo; details: 3 mg/kg intravenously, 10 occasions
Description: The effect on melanoma was studied on SCID immune-deficient mouse model inoculated in the spleen with HTT199 human melanoma cells (ATCC) (1 million cells/animal). Two groups were formed from randomly selected mice, with 10 animals in each group. Group 1: control group, it was only administered a carrier (0.1 mL, 0.9% NaCl solution) intravenously; group 2: group treated with compound 83, it was administered 3 mg/kg of compound 83 in PEG100:Solutol:PBS (1:4:15 vol ratio), intravenously.
as §1, with “8).” for “7).”, “83” for “60”, “33” for “26”, “38)” for “42)”

Structure (SMILES)	survival rate of the animals [1]	median survival time ([1]; control day 26)	expression of haematopoietic stem cell marker CD33 [2]	expression of haematopoietic stem cell marker CD34 [3]	matured myeloid cell marker CD11b on the cell surface (CD11b on HL-60 cells)	size of the increasing mammary tumour [4]	survival rate of the animals [5]	median survival time ([5]; control day 33)
CC(C)(C)Nc1c(C(C)(C)C)[nH]c2c(C(=O)Nc3ccc(F)cc3)cnn12 [Example 60, 2-(Tert-butyl)-N-(4-fluorophenyl)-3-((tert-butyl-2-yl)amino)-1H-imidazo[1,2-b]pyrazole-7-carboxamide]	increased	42 days	–	–	–	–	–	–
CC(C)(C)Nc1c(C(C)(C)C)[nH]c2c(C(=O)Nc3ccc(N)cc3)cnn12 [Example 83, N-(4-Aminophenyl)-2-(tert-butyl)-3-(tert-butylamino)-1H-imidazo[1,2-b]pyrazole-7-carboxamide]	–	–	decreased	decreased	elevation; also recorded: elevated	reduced	increased	38 days
